Usually IC50 stands for the concentration that inhibits the measured activity by half.

A value given as a limit tells only on which side of the number the result lay.

Sequence of Human Factor D (purified from human serum) (P00746 26-253): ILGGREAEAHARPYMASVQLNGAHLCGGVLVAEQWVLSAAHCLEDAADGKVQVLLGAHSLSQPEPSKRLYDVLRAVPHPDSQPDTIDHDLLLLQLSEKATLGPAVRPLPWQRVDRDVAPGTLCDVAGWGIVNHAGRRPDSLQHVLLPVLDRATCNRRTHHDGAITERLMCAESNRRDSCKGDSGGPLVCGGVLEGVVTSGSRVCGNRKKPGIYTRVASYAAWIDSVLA

For one test, the target named is Human Factor D (purified from human serum) (Homo sapiens (Human), UniProt P00746). The test can be described thus: Human Factor D Assay. It is filed as biochemical. As to conditions: Human Factor D 80 nM, substrate Z-L-Lys-SBzl, assay of Example 2; read-out: IC50 (Stars). As to the method:
The assay of Example 2 was used to determine the IC50's of the compounds. Other standard Factor D inhibition assays are also available.
Human Factor D (purified from human serum, Complement Technology, Inc.) at 80 nM final concentration is incubated with test compound at various concentrations for 5 min at room temperature in 50 mM Tris, 1M NaCl, pH 7.5. A synthetic substrate Z-L-Lys-SBzl and DTNB (Ellman's reagent) are added to final concentrations of 100 μM each. Absorbance at 405 nm (A405) is recorded at 30 second intervals for 30 minutes using a microplate spectrophotometer. IC50 values are calculated by nonlinear regression of Complement Factor D reaction rates as a function of test compound concentration.
Regarding “(41R,43S,45R)-42-(2-(3-acetyl-5-(2-methylpyrimidin-5-yl)-1H-indazol-1-yl)acetyl)-16-bromo-6-methyl-7-thia-42,6-diaza-1(2,3)-pyridina-4(3,5)-bicyclo[3.1.0]hexanacycloundecaphan-10-en-3-one 7,7-dioxide [Compound T-17]”, the IC50 is less than 1000 nM.

The same test, now with this note: Human Factor D 80 nM, substrate Z-L-Lys-SBzl; Table 6; read-out: IC50.
On to `CC(=O)c1nn2c3c(cc(-c4cnc(C)nc4)cc13)CCCCCCC(=O)NC[C@@]13C[C@@H](C(=O)Nc4cc(Br)ccc4C4CC4)N(C(=O)C2)[C@@H]1C3` [Compound T-212, (41R,43S,45R)-13-acetyl-N-(6-bromo-3-cyclopropylpyridin-2-yl)-15-(2-methylpyrimidin-5-yl)-3,7-dioxo-11H-42,6-diaza-1(1,7)-indazola-4(2,5)-bicyclo[3.1.0]hexanacyclotridecaphane-43-carboxamide], for which the concentration for half-maximal inhibition (IC50) is less than 1000 nM. For the compound `CC(=O)c1nn2c3c(cc(-c4cnc(C)cn4)cc13)CC=CCCCC(=O)NC[C@@]13C[C@@H](C(=O)Nc4nc(C(F)(F)F)ccc4C)N(C(=O)C2)[C@@H]1C3` [Compound T-219, (41R,43S,45R)-13-acetyl-N-(3-methyl-6-(trifluoromethyl)pyridin-2-yl)-15-(5-methylpyrazin-2-yl)-3,7-dioxo-11H-42,6-diaza-1(1,7)-indazola-4(2,5)-bicyclo[3.1.0]hexanacyclotridecaphan-11-ene-43-carboxamide], the 50% inhibitory concentration (IC50) was less than 1000 nM.

For `CC(=O)c1nn2c3c(cc(-c4cnc(C)nc4)cc13)CCCCCCC(=O)NC[C@@]13C[C@@H](C(=O)Nc4nc(Br)ccc4F)N(C(=O)C2)[C@@H]1C3` [Compound T-230, (41R,43S,45R)-13-acetyl-N-(6-bromo-3-fluoropyridin-2-yl)-15-(2-methylpyrimidin-5-yl)-3,7-dioxo-11H-42,6-diaza-1(1,7)-indazola-4(2,5)-bicyclo[3.1.0]hexanacyclotridecaphane-43-carboxamide], the IC50 is less than 1000 nM.

Staying with this test, now noted: Human Factor D 80 nM, substrate Z-L-Lys-SBzl; Table 6; read-out: IC50 (Stars).
In the case of `CC(=O)c1nn2c3c(cc(-c4cnc(C)nc4)cc13)CCCCCC(C)(C)C(=O)N(C)C[C@@]13C[C@@H](C(=O)Nc4nc(C(F)(F)F)ccc4C)N(C(=O)C2)[C@@H]1C3` [Compound T-186, (41R,43S,45R)-13-acetyl-6,8,8-trimethyl-N-(3-methyl-6-(trifluoromethyl)pyridin-2-yl)-15-(2-methylpyrimidin-5-yl)-3,7-dioxo-11H-42,6-diaza-1(1,7)-indazola-4(2,5)-bicyclo[3.1.0]hexanacyclotridecaphane-43-carboxamide], the concentration for half-maximal inhibition (IC50) is less than 1000 nM. `CC(=O)c1nn2c3c(nc(-c4cnc(C)nc4)cc13)CCCCCCC(=O)NC[C@@]13C[C@@H](C(=O)Nc4nc(Br)ccc4C)N(C(=O)C2)[C@@H]1C3` [Compound T-166, (41R,43S,45R)-13-acetyl-N-(6-bromo-3-methylpyridin-2-yl)-15-(2-methylpyrimidin-5-yl)-3,7-dioxo-11H-42,6-diaza-1(1,7)-pyrazolo[3,4-c]pyridina-4(2,5)-bicyclo[3.1.0]hexanacyclotridecaphane-43-carboxamide]: the half-maximal inhibitory concentration (IC50) is less than 1000 nM. Take `Cc1ncc(-c2cc3c(C#N)nn4c3c(n2)CCCC=CCOC[C@@]23C[C@@H](C(=O)Nc5nc(C(F)(F)F)ccc5C)N(C(=O)C4)[C@@H]2C3)cn1` [Compound T-154, (41R,43S,45S)-13-cyano-N-(3-methyl-6-(trifluoromethyl)pyridin-2-yl)-15-(2-methylpyrimidin-5-yl)-3-oxo-11H-6-oxa-42-aza-1(1,7)-pyrazolo[3,4-c]pyridina-4(2,5)-bicyclo[3.1.0]hexanacyclododecaphan-8-ene-43-carboxamide]: the IC50 is less than 1000 nM. Regarding `CC(=O)c1cn2c3c(cc(-c4cnc(C)nc4)cc13)CCCCCCC(=O)NC[C@@]13C[C@@H](C(=O)Nc4nc(C(F)(F)F)ccc4C)N(C(=O)C2)[C@@H]1C3` [Compound T-159, (41R,43S,45R)-13-acetyl-N-(3-methyl-6-(trifluoromethyl)pyridin-2-yl)-15-(2-methylpyrimidin-5-yl)-3,7-dioxo-11H-42,6-diaza-1(1,7)-indola-4(2,5)-bicyclo[3.1.0]hexanacyclotridecaphane-43-carboxamide], the half-maximal inhibitory concentration (IC50) is less than 1000 nM. Regarding `CC(=O)c1nn2c3c(nc(-c4cnc(C)nc4)cc13)CCCCCC(=O)NC[C@@]13C[C@@H](C(=O)Nc4nc(C(F)(F)F)ccc4C)N(C(=O)C2)[C@@H]1C3` [Compound T-124, (41R,43S,45R)-13-acetyl-N-(3-methyl-6-(trifluoromethyl)pyridin-2-yl)-15-(2-methylpyrimidin-5-yl)-3,7-dioxo-11H-42,6-diaza-1(1,7)-pyrazolo[3,4-c]pyridina-4(2,5)-bicyclo[3.1.0]hexanacyclododecaphane-43-carboxamide], the IC50 is less than 1000 nM.

These data come from US11718626B2, “Macrocyclic compounds for treatment of medical disorders” (Achillion Pharmaceuticals, Inc., priority 2017, dated 2023).
